The values that follow come from US20100240040A1, “METHOD FOR SCREENING FOR SELECTIVE MODULATOR OF THE NF-KB PATHWAY ACTIVATION” (INSTITUT PASTEUR, priority 2007, published 2010).

Where a SMILES comes first, the peptide text is derived from it. Where no end group is shown, it is not given here. The star is where a group is joined. BODIPYFLEthylmaleimide = Cc1cc(C)n2c1C=C1C=CC(CCC(=O)NCCN3C(=O)CC(*)C3=O)=[N+]1[B-]2(F)F; Bodipy = not defined here

Data set [1] has as its target T1, NEMO oligomers (Flag-NEMO/GFP-NEMO) (Mus musculus, UniProt O88522, A144V/E216G/P360T/S248N).
T1 construct: expressed in transfected cells; host or cells: 293T (human embryonal kidney), transient co-transfection
Kind of data set: Inhibition of NEMO oligomerization in cells (GFP-NEMO/Flag-NEMO co-transfected 293T cells). It counts as cell-based, murine. Conditions: 20 μM peptide. As for the experimental part: 293T cells were transiently co-transfected by calcium-phosphate-DNA precipitation method with 2 μg of a plasmid pcDNA3 (Invitrogen) containing the sequence of FLAG-NEMO (pcDNA3-Flag-NEMO of sequence SEQ ID NO: 24) and 0.7 μg of a plasmid pcDNA3 containing the sequence of GFP-NEMO (pcDNA3-GFP-NEMO of sequence SEQ ID NO: 26). Empty vector is added up to a total amount of DNA of 4 μg per 6 cm dish. 24 h after transfection, cells were resuspended and incubated with or without 20 μM of peptides (A-NLM or A-DR NLM) for 7 h at 37° C. Cells were resuspended and washed twice with PBS to remove excess peptides and lysed in 150 μl of lysis buffer containing a protease inhibitor mixture as indicated above (Example 1.D). Lysates were clarified at 15 000×g at 4° C. for 20 min. The amount of proteins in the clarified lysate is determined by the Bradford method with the kit DC Biorad. 100 μg of total proteins were diluted in 200 μl of interaction buffer (50 mM TrisHCl pH 7.5, 1% triton X100, 1 mM DTE, 300 mM NaCl) and incubated 1 h at 4° C. with 40 μl of agarose anti-Flag M2 beads (Sigma). The oligomers Flag-NEMO/GFP-NEMO were pulled down with the anti-Flag M2 beads and washed twice with the interaction buffer. The fluorescence of GFP-NEMO were directly read on the beads with a fluorescence microplate reader SAFAS and the clarified lysates were analysed by Western blotting using anti-Flag, anti-GFP and anti-NDPK-B antibodies (Kraeft et al., 1996; Exp Cell Res; 227:63-69) to normalize the results.
In order to better analyze the molecular mechanism of the inhibition of the NF-κB pathway by DR NLM peptide, the Inventors have developed an assay to probe NEMO oligomerization in cells as described in Example 1.I (see FIG. 5 for an overview of the cell-based assay). For this, two plasmids were used, expressing respectively GFP-NEMO and Flag-NEMO fusion proteins. The plasmids were cotransfected in human 293T cells to overexpress exogenous GFP-NEMO and Flag-NEMO fusion proteins and enforce NEMO oligomerization. The cells were then submitted to detergent lysis and Flag-NEMO proteins were immunopurified using anti-Flag agarose beads and Flag peptide as described in Example 1.I. The fluorescence associated with beads that results from an association of Flag-NEMO with GFP-NEMO subunits within hetero-oligomers allow an estimate of the amount of oligomers present in the cellular extracts.

For a further data set, the target named is T2, spCC2-LZ (MOD of NEMO) (Mus musculus, UniProt O88522).
T2 construct: spCC2-LZ, synthetic polypeptide subdomain CC2-LZ; made in house; host or cells: chemical synthesis
T2 sequence (O88522 253-336): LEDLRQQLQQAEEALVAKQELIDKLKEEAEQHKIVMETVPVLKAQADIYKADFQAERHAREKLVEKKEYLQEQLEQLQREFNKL
Description: Fluorescence anisotropy binding of labelled peptide to spCC2-LZ. Conditions: labelled peptide 10 μM, increasing spCC2-LZ; read-out: dissociation constant for spCC2-LZ. As to the method: Anisotropy measurements were performed with a QuantaMaster® fluorometer (PTI), equipped with polarizing filters for excitation and emission, and using a photomultiplier tube in the L-configuration. All experiments were carried out in a microcuvette (60 μl) at 22° C., with excitation and emission wavelengths at 495 and 513 nm. The band pass of the excitation and emission wavelengths was 2 and 4 nm, respectively. Steady-state fluorescence anisotropy, expressed as millianisotropy units was measured as described Agou et al., 2004a. All measurements were carried out in a 20 mM isoionic buffer pH 8 (10 mM acetic acide, 10 mM MES, 20 mM Tris), containing 20 mM KCl. Each data point is the result of 20 recording taken over a 2-min period. To analyse whether DR NLM binds the MOD of NEMO, fluorescent labelled BA-DR NLM (10 μM) was incubated with an increasing concentrations of spCC2-LZ and the complex formation was monitored by fluorescence polarization (P) and results are expressed as anisotropy (A) according to the formula A=2P/(3-P). The concentration of spCC2-LZ was determining by amino acid analysis (Vinolo et al; 2006). Data points were fitted to the binding isotherm equation which gives a dissociation constant of 17 μM.

For data set [2], the target named is T3, Lys63-linked polyubiquitin chains (Homo sapiens, UniProt P0CG47).
T3 construct: the Lys63-linked polyubiquitin chains; purchased Boston Biochem
Description: In vitro binding assay by fluorescence polarization to polyubiquitin chains. Conditions: tag-free peptide.

A further data set has as its system NF-κB pathway. Conditions: cited from earlier work; for IC50 of inhibition of NF-κB activation: reported in WO2005/027959, Agou et al., 2004b.
In data set [3] the target is T4, CC2-LZ interaction with cellular polyubiquitinylated proteins (Mus musculus, UniProt O88522).
T4 construct: made in house; host or cells: chemical synthesis (bait); crude extract of JM4.5.2 cells with or without TNFα (partners)
T4 sequence (O88522 253-336): as above
Description: Pull-down of polyubiquitinylated proteins from JM4.5.2 extracts with biotinylated CC2-LZ, anti-ubiquitin Western blot. It counts as biochemical. Conditions: 20 μM peptide, extracts of TNF-α stimulated JM4.5.2 cells. As for the experimental part: 24·10^7 JM4.5.2 cells were stimulated or not with 10 ng/ml of TNFα for 10 minutes at 37° C., washed twice with cold PBS and lysed in 900 μl of lysis buffer containing a protease inhibitor mixture as indicated in Example 1.D. Lysates were clarified at 15 000×g at 4° C. for 30 min. 150 μl of proteins were incubated 2 h at 4° C. with 150 μl of streptavidin magnetic beads (MagPrep®, Novagen) pre-incubated 1 h at 4° C. with 10 μg of biotynilated-CC2-LZ and with or without 20 μM of peptides (BA-NLM or BA-DR NLM). Beads were washed 4 times in buffer A (10 mM Hepes pH 7.5, 150 mM NaCl, 8 mM MgCl2, 10% glycerol, 0.1 mM DDM and 1 mM DTE) and resuspended in 30 μl of laemmli buffer containing 6 M Urea. Samples were analysed by Western blotting using anti-ubiquitin antibodies (Sigma) as well as anti-NDPK-B antibodies for loading controls.
Thus, the Inventors examined whether DR NLM impedes the interaction between NEMO and the K63 polyubiquitin chains. To this end, they developed a pull down assay which uses the a peptide comprising the CC2 and the LZ domains of NEMO as a bait to pull down the polyubiquitinylated proteins as described in Example 1.J and depicted in FIG. 7A. […] After extensive washing of beads, all mono and polyubiquitinylated proteins bound to CC2-LZ were analysed by Western blot using anti-ubiquitin antibody (Sigma).

Data set [4] is described as follows: Circular dichroism and gel filtration, self-association of peptides. The data set is classed as physicochemical. As to conditions: peptide concentration up to 100 μM; data not shown. As for the experimental part: Far-UV circular dichroism (CD) measurements were performed with an Aviv 215 spectropolarimeter with samples diluted in 10 mM NaPO4 at pH 7.
Then, unlike the LZ peptide, DR NLM peptide as well as NLM peptide are unable to self-associate. Self association of LZ peptide is described by Agou et al., 2004b.

T1 sequence (O88522 with tags, fused parts or gaps A144V/E216G/S248N/P360T limits assumed): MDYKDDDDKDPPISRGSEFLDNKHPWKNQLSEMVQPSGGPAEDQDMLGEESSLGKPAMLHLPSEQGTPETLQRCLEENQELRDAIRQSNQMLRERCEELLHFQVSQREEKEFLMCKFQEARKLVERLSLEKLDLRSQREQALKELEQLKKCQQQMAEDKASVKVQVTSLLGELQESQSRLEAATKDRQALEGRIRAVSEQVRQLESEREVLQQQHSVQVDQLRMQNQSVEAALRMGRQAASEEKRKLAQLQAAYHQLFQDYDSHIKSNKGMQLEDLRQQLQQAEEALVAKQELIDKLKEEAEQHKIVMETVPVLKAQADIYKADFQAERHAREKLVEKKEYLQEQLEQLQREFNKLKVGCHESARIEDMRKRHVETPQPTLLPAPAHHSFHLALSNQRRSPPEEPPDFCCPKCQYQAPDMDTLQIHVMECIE

Regarding `CC[C@H](C)[C@H](NC(=O)[C@H](CC(=O)O)NC(=O)[C@H](C)NC(=O)[C@H](CCC(N)=O)NC(=O)[C@H](C)NC(=O)[C@H](CCCCN)NC(=O)[C@H](CC(C)C)NC(=O)[C@H](CCCCN)NC(=O)[C@H](CCCCN)NC(=O)[C@H](Cc1c[nH]c2ccccc12)NC(=O)[C@H](CCCCN)NC(=O)[C@H](CCSC)NC(=O)[C@H](CCCNC(=N)N)NC(=O)[C@H](CCCNC(=N)N)NC(=O)[C@H](CC(N)=O)NC(=O)[C@H](CCC(N)=O)NC(=O)[C@H](Cc1ccccc1)NC(=O)[C@H](Cc1c[nH]c2ccccc12)NC(=O)[C@@H](NC(=O)[C@H](CCCCN)NC(=O)[C@@H](NC(=O)[C@H](CCC(N)=O)NC(=O)[C@H](CCCNC(=N)N)NC(=O)[C@H](CSC1CC(=O)N(CCNC(=O)CCC2=[N+]3C(=Cc4c(C)cc(C)n4[B-]3(F)F)C=C2)C1=O)NC(C)=O)[C@@H](C)CC)[C@@H](C)CC)C(=O)N[C@@H](Cc1ccc(O)cc1)C(=O)N[C@@H](CCCCN)C(=O)N[C@@H](C)C(=O)N[C@@H](CCCNC(=N)N)C(=O)N[C@@H](Cc1ccccc1)C(=O)N[C@@H](CCC(N)=O)C(=O)N[C@@H](C)C(=O)N[C@@H](CCC(=O)O)C(=O)N[C@@H](CCCNC(=N)N)C(=O)N[C@@H](Cc1c[nH]cn1)C(=O)N[C@@H](C)C(=O)N[C@@H](CCCNC(=N)N)C(=O)N[C@@H](CCC(=O)O)C(=O)N[C@@H](CCCCN)C(N)=O` (stereo partly shown) [BA-DR NLM] (Ac-C(BODIPYFLEthylmaleimide)RQIKIWFQNRRMKWKKLKAQADIYKARFQAERHAREK-NH2; N-terminus and C-terminus assumed), the “amount of NEMO oligomers (fluorescent NEMO subunit recovered)” value (“amount of NEMO oligomers” for short) in data set [1] is “same amount of NEMO oligomers in the absence or in the presence”. Further, the Kd at spCC2-LZ (MOD of NEMO) came to 17 µM.

As to `CC[C@H](C)[C@H](NC(=O)[C@H](CC(=O)O)NC(=O)[C@H](C)NC(=O)[C@H](CCC(N)=O)NC(=O)[C@H](C)NC(=O)[C@H](CCCCN)NC(=O)[C@H](CC(C)C)NC(=O)[C@H](CCCNC(=N)N)NC(=O)[C@H](CCCNC(=N)N)NC(=O)[C@H](CCCNC(=N)N)NC(=O)[C@H](CCCNC(=N)N)NC(=O)[C@H](CCCNC(=N)N)NC(=O)[C@H](CCCNC(=N)N)NC(=O)[C@H](CCCNC(=N)N)NC(=O)[C@H](CSC1CC(=O)N(CCNC(=O)CCC2=[N+]3C(=Cc4c(C)cc(C)n4[B-]3(F)F)C=C2)C1=O)NC(C)=O)C(=O)N[C@@H](Cc1ccc(O)cc1)C(=O)N[C@@H](CCCCN)C(=O)N[C@@H](C)C(=O)N[C@@H](CCCNC(=N)N)C(=O)N[C@@H](Cc1ccccc1)C(=O)N[C@@H](CCC(N)=O)C(=O)N[C@@H](C)C(=O)N[C@@H](CCC(=O)O)C(=O)N[C@@H](CCCNC(=N)N)C(=O)N[C@@H](Cc1c[nH]cn1)C(=O)N[C@@H](C)C(=O)N[C@@H](CCCNC(=N)N)C(=O)N[C@@H](CCC(=O)O)C(=O)N[C@@H](CCCCN)C(N)=O` (stereo partly shown) [BR7-DR NLM] (Ac-C(BODIPYFLEthylmaleimide)RRRRRRRLKAQADIYKARFQAERHAREK-NH2; N-terminus and C-terminus assumed), the Kd on spCC2-LZ (MOD of NEMO) was 21 µM.

In the case of `CC[C@H](C)[C@H](NC(=O)[C@H](CC(=O)O)NC(=O)[C@H](C)NC(=O)[C@H](CCC(N)=O)NC(=O)[C@H](C)NC(=O)[C@H](CCCCN)NC(=O)[C@H](CC(C)C)NC(C)=O)C(=O)N[C@@H](Cc1ccc(O)cc1)C(=O)N[C@@H](CCCCN)C(=O)N[C@@H](C)C(=O)N[C@@H](CC(=O)O)C(=O)N[C@@H](Cc1ccccc1)C(=O)N[C@@H](CCC(N)=O)C(=O)N[C@@H](C)C(=O)N[C@@H](CCC(=O)O)C(=O)N[C@@H](CCCNC(=N)N)C(=O)N[C@@H](Cc1c[nH]cn1)C(=O)N[C@@H](C)C(=O)N[C@@H](CCCNC(=N)N)C(=O)N[C@@H](CCC(=O)O)C(=O)N[C@@H](CCCCN)C(N)=O` [NLM] (Ac-LKAQADIYKADFQAERHAREK-NH2; N-terminus and C-terminus assumed), in data set [2], the “cooperativity index (Hill coefficient) n” value was 8. The Kd in data set [2] (read-out: dissociation constant for Lys63-linked polyubiquitin chains) was determined as 180 µM. The “inhibition of NF-κB activation” value in the data set on NF-κB pathway (reported in WO 2005/027959) is “inhibit NF-κB activation”. The “inhibition of CC2-LZ interaction with polyubiquitinylated proteins” value in data set [3] was “no inhibition was observed”. For the same compound, the “oligomeric state / self-association” value in data set [4] is on record as “behave as monomer”.

Take “BA-LZ L322P/L329P: BA-LZ bearing a double mutation within the coiled-coil interface, SEQ ID NO: 22 (C(Bodipy)RQIKIWFQNRRMKWKKLKAQADIYKADFQAERHAREKLVEKKEYPQEQLEQPQREFNKL; reading uncertain)”: the “amount of NEMO oligomers” value in data set [1] was “no dissociation of NEMO oligomers was observed”.

Turning to “BA-LZ: Bodipy-antennapedia tagged LZ peptide, SEQ ID NO: 4 (human 5) (C(Bodipy)RQIKIWFQNRRMKWKKLKAQADIYKADFQAERHAREKLVEKKEYLQEQLEQLQREFNKL; reading uncertain)”, the “amount of NEMO oligomers” value in data set [1] is given as “strong decrease in the amount of fluorescent NEMO subunit”.

“BA-NLM: NLM fused at N-terminus with antennapedia and conjugated with bodipy (C(Bodipy)RQIKIWFQNRRMKWKKLKAQADIYKADFQAERHAREK; reading uncertain)”: the “amount of NEMO oligomers” value in data set [1] is recorded as “same amount of NEMO oligomers in the absence or in the presence”.

Turning to “LKAQADIYKADFQAERHAREKLVEKKEYLQEQLEQLQREFNKL [spLZ]”, in the data set with NF-κB pathway, the “IC50 of inhibition of NF-κB activation” value is “in the μM range”.

As for “SKGMQLEDLRQQLQQAEEALVAKQELIDKLKEEAEQHKIV [spCC2]”, the “IC50 of inhibition of NF-κB activation” value in the data set with NF-κB pathway is reported as “in the μM range”.
